One assay relates to vaccinia virus. It is filed as in vivo, mice. The conditions noted are these: more vigorous rubbing in; treatment continued until death.
In assay [1] the test system is Vaccinia virus (WR strain). Also noted: species or system mice. Particulars: mouse, in vivo.
Assay [2] concerns Vaccinia virus (WR strain). Further details: species or system mice. The conditions noted are these: mouse, in vivo. This is another data set of the same source.

Entries after “also recorded” stand apart in the source; their conditions may differ. Where two headings read alike, the source gives them in different places.

As to benzalkonium chloride, the “benefit in terms of survival or suppressing lesion severity” value in the assay with vaccinia virus is “no benefit”. Further, in assay [1], the Survivors/Total was 0/10 and the protection from death entry is recorded as “No protection from death”. Also, in assay [2], the Survivors/Total is 0/10; the “mean day of death / survival time compared to water” value is “longer than those respective groups treated with water, but the results were not statistically significant; also recorded: slightly longer survival times”; the protection from death entry is listed as “No protection from death”.
